Test results taken from US9567291B2, “N-(4-(bis(4-(dimethylamino)phenyl)methylene)-8-(dimethylamino)” (EMORY UNIVERSITY, priority 2013, dated 2017).
“Also recorded” adds a separate entry of the source.

Assays:
Type in all cases: cell-based
A375 cells = experiment: cell proliferation assay, A375 cells; conditions: 24 h treatment; for inhibition of cell proliferation: cell count, FIG. 4A/5A
Method: (§1) FIG. 1 illustrates the cell proliferation assay procedure. 5×10^4 cells were seeded in 24-well plates and incubated for 24 h. Stock solutions of PSB, PSMB, and IB were diluted into 5 mL of appropriate media samples for each treatment concentration (1 μM, 2.5 μM, etc). One mL was then added to each of the four wells per treatment concentration. Cells were incubated for 24 h in standard conditions. Cells were then washed with Phosphate Buffered Saline (Sigma Aldrich) and harvested by trypsinization (0.5 mL/well). Cells were incubated for 10 minutes in standard conditions and diluted into a 10 mL isotone solution. The isotone solution was subsequently placed into a cell counter, providing a count that represented 1/20 the number of cells per well.
(§2) A375 cells were grown in high-glucose Dulbecco's modified Eagle's medium (DMEM) (Mediatech) supplemented with fetal bovine serum (FBS) and penicillin/streptomycin (Sigma-Aldrich) in standard conditions (37° C., 5% CO2, humidified atmosphere). LM36 and LM36R cells were grown in cultured in RPMI medium supplemented with 10% FBS, L-glutamine and antibiotics in standard conditions (37° C., 5% CO2, humidified atmosphere).

LM36R cells = experiment: cell proliferation assay, LM36R cells; conditions: 24 h treatment
Method: as §1, §2

LM36 cells = experiment: cell proliferation assay, LM36 cells; conditions: 24 h treatment
Method: as §1, §2

| Substance | antiproliferative potency compared to IB (A375 cells) | inhibition of cell proliferation (A375 cells) | antiproliferative potency compared to IB (LM36R cells) | inhibition of cell proliferation (LM36R cells; cell count, FIG. 4B/5B) | antiproliferative potency compared to IB (LM36 cells) | inhibition of cell proliferation (LM36 cells; cell count, FIG. 4C/5C) |
| --- | --- | --- | --- | --- | --- | --- |
| N-(4-(bis(4-(dimethylamino)phenyl)methylene)-8-(dimethylamino)naphthalen-1(4H)-ylidene)-N-methylmethanaminium [PSMB] | greater antiproliferative effects than IB; also recorded: more potent inhibition than IB | anti-proliferative effects that operate in a concentration-dependent fashion | greater antiproliferative effects than IB; also recorded: more potent inhibition than IB | anti-proliferative effects that operate in a concentration-dependent fashion | greater antiproliferative effects than IB; also recorded: more potent inhibition than IB | anti-proliferative effects that operate in a concentration-dependent fashion |
| N-(4-(bis(4-(diethylamino)phenyl)methylene)-8-(dimethylamino) naphthalen-1(4H)-ylidene)-N-methylmethanaminium [PSB] | only exhibits greater antiproliferative effects in A375 cells; also recorded: more potent than IB | inhibits A375 proliferation in a concentration-dependent fashion | Such a trend is not observed |  | Such a trend is not observed |  |
